In brackets after ≈: the same amount, converted by molar mass. Entries after “also recorded” stand apart in the source; their conditions may differ.
Assays:
Format in all cases: physicochemical
[1] = Microcentrifuge dissolution in simulated gastric and intestinal media (GB/IB transfer test); conditions: for dissolution in simulated gastric media: 0.01N HCl, pH 2.0, 1000 μg/mL; for dissolution in simulated intestinal media (IB): 0.5 wt % SIF powder in PBS, pH 6.5, 500 μg/mL
Description: Microcentrifuge dissolution of salts in simulated gastric and intestinal media
Dissolution of tosylate and docusate salts in simulated GB/IB transfer dissolution test was measured and compared to free base. The simulated gastric media was 0.01N HCl, pH 2.0 (concentration 1000 μg/mL), and the simulated intestinal media was 0.5 wt % SIF powder in PBS, pH 6.5 (500 μg/mL).
Once the pH is raised to intestinal pH, the drug converts back to a free base that precipitates.

[2] = Solubility in SEDDs (lipid) vehicle, saturated solution
Description: A saturated solution of the docusate salt in the SEDDs vehicle and a saturated solution of the tosylate salt in the SEDDs vehicle were prepared. The SEDDs vehicle was 15 wt % Capmul® MCM C10, 50 wt % Polysorbate 80, and 35 wt % Miglyol 812.

[3] = Solubility in organic solvents, potency measurement by HPLC
Description: In a glass vial, N-(4-{4-amino-7-[1-(2-hydroxyethyl)-1H-pyrazol-4-yl]thieno[3,2-c]pyridin-3-yl}phenyl)-N′-(3-fluorophenyl)urea free base (501 mg, 1.02 mmol) was slurried in 20 ml of THF using a magnetic stir bar. The free base was converted to the HCl salt in-situ by addition of 5.0 ml of aqueous 0.207 N HCl. Docusate sodium (465 mg, 1.05 mmol) was added and the mixture was stirred until all solids dissolved. Solvent was removed by rotoevaporation. Acetone, 15 ml, was added to the flask with mixing until most of the solid has dissolved, resulting in a suspension of NaCl particles. The sample was then filtered through a 0.45 µm syringe filter (to remove the NaCl particles) followed by rotoevaporation to remove acetone. The sample was placed on a vacuum line to dry for 2 hours. The above step was repeated with 15 ml acetone and filtration through a 0.22 µm filter. After removing the acetone by rotoevaporation, the sample was dried under vacuum overnight. The sample appears to be amorphous to the naked eye. […] Solubilities were determined by potency measurements using high-performance liquid chromatography (HPLC).

[4] = Stability, droplet size (DLS) and appearance of the SEDD emulsion after 1:9 dilution in water
Description: The docusate:SEDD concentrate was diluted in water at a 1:9 ratio, resulting in an emulsion at a concentration of 2.3 mg/mL. […] The emulsion was stable at native pH 4 for more than 2 weeks at room temperature, with no significant change in particle size analysis by dynamic light scattering (DLS).
The tosylate:SEDD concentrate was diluted in water at a 1:9 ratio, resulting in an emulsion at a concentration of 2.3 mg/mL.

Solubility in water = conditions: pH 7.4
[5] = 15 wt % Capmul MCM C10, 50 wt % Polysorbate 80, 35 wt % Miglyol 812

| SMILES | dissolution in simulated gastric media [1] | dissolution in simulated intestinal media (IB) [1] | solubility ([2]; SEDDs vehicle, oil or lipid, thermodynamic from solid, 15 wt % Capmul MCM C10, 50 wt % Polysorbate 80, 35 wt % Miglyol 812, read-out: solubility in the SEDD vehicle) [mg/mL] | solubility ([3]; organic solvent or mixture) [mg/mL] | solubility in the SEDD vehicle [2, 5] [mg/mL] | solubility in lipid vehicles (in words) ([2]; lipid vehicles) | solubility in tetrahydrofuran (THF) ([3]; THF) | solubility in acetone ([3]; acetone) [mg/mL] | solubility in dichloromethane ([3]; dichloromethane) [mg/mL] | solubility in ethanol ([3]; ethanol) [mg/mL] | stability in emulsions (in words) [4] | solubility in water (Solubility in water) |
| --- | --- | --- | --- | --- | --- | --- | --- | --- | --- | --- | --- | --- |
| Cc1ccc(S(=O)(=O)O)cc1.Nc1ncc(-c2cnn(CCO)c2)c2scc(-c3ccc(NC(=O)Nc4cccc(F)c4)cc3)c12 [tosylate salt, N-(4-{4-amino-7-[1-(2-hydroxyethyl)-1H-pyrazol-4-yl]thieno[3,2-c]pyridin-3-yl}phenyl)-N′-(3-fluorophenyl)urea tosylate salt] | significant solubility at the lower pH | precipitates | 22 | > 25 | – | – | – | – | – | – | – | – |
| CCCCC(CC)COC(=O)CC(C(=O)OCC(CC)CCCC)S(=O)(=O)O.Nc1ncc(-c2cnn(CCO)c2)c2scc(-c3ccc(NC(=O)Nc4cccc(F)c4)cc3)c12 [docusate salt, N-(4-{4-amino-7-[1-(2-hydroxyethyl)-1H-pyrazol-4-yl]thieno[3,2-c]pyridin-3-yl}phenyl)-N′-(3-fluorophenyl)urea docusate salt] | does not dissolve in acidic pH | significantly higher solubility profile during the first 90 minutes in IB than either free base or the tosylate salt; also recorded: appreciable solubility in IB solution | – | – | 23 | high solubility in lipid vehicles | greater than 45 mg/ml | > 47 | > 75 | > 51 | remain stable in emulsions over a period of several days | – |
| Nc1ncc(-c2cnn(CCO)c2)c2scc(-c3ccc(NC(=O)Nc4cccc(F)c4)cc3)c12 [free base, N-(4-{4-amino-7-[1-(2-hydroxyethyl)-1H-pyrazol-4-yl]thieno[3,2-c]pyridin-3-yl}phenyl)-N′-(3-fluorophenyl)urea free base] | significant solubility at the lower pH | precipitates | – | – | 2.7 (≈ 5.53 mM) | – | – | – | – | – | – | less than 30 ng/ml |

— patent US20170197980A1, “N-(4-PHENYL)-N'-(3-FLUOROPHENYL)UREA DOCUSATE” (AbbVie Inc., priority 2014, published 2017)
